Measured values from ChEMBL document CHEMBL1201862, “PubChem BioAssay data set” (2004).
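Cells were grown in 96-well plates and exposed to each compound for 48 hours at five concentrations; endpoints were interpolated linearly between bracketing concentrations, or set to the highest concentration if not reached. GI50: concentration for 50% inhibition of growth.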 Calls of active or inactive are those of the source. Rule as the data show it: active = GI50 up to about 1.1 µM and inactive = higher.

Key:
Assay in all cases: inhibition of tumour cell growth, NCI panel, 48 h
MDA-MB-231 = tested on: MDA-MB-231
A498 = tested on: A498
CAKI-1 = tested on: CAKI-1
MOLT-4 = tested on: MOLT-4
EKVX = tested on: EKVX
OVCAR-3 = tested on: OVCAR-3
MDA-MB-435 = tested on: MDA-MB-435
MDA-N = tested on: MDA-N
PC-3 = tested on: PC-3
K562 = tested on: K562
NCI-H226 = tested on: NCI-H226
NCI-H522 = tested on: NCI-H522
SF-539 = tested on: SF-539
Malme-3M = tested on: Malme-3M
BT-549 = tested on: BT-549
786-0 = tested on: 786-0
A549 = tested on: A549
U-251 = tested on: U-251
HOP-92 = tested on: HOP-92
SK-MEL-28 = tested on: SK-MEL-28

Measured: GI50

N#Cc1c(C#N)c(-c2ccccc2)n(-c2ccccc2)c1N
inactive: MDA-MB-231 > 100 µM | A498 > 100 µM | CAKI-1 > 100 µM | MOLT-4 60.3 µM | EKVX 73.8 µM | OVCAR-3 > 100 µM | MDA-MB-435 > 100 µM | MDA-N > 100 µM | PC-3 > 100 µM | K562 19.7 µM | NCI-H226 72.4 µM | NCI-H522 41.9 µM | SF-539 20.2 µM | Malme-3M > 100 µM | BT-549 48.4 µM | 786-0 82.6 µM | A549 > 100 µM | U-251 33.4 µM

O=c1[nH]nc(-c2ccccc2)n1/N=C/c1ccncc1
inactive: HOP-92 > 100 µM | A498 24.9 µM | CAKI-1 > 100 µM | MOLT-4 > 100 µM | EKVX > 100 µM | OVCAR-3 > 100 µM | SK-MEL-28 > 100 µM | MDA-MB-435 > 100 µM | MDA-N > 100 µM | PC-3 > 100 µM | K562 > 100 µM | NCI-H226 97.7 µM | NCI-H522 > 100 µM | SF-539 61.8 µM | Malme-3M > 100 µM | BT-549 32.6 µM | 786-0 > 100 µM | A549 > 100 µM | U-251 > 100 µM

CC(C)(C)OC(=O)NC(CCCCNC(=O)OCc1ccccc1)C(=O)NC(CCCCNC(=O)OCc1ccccc1)C(=O)ON1C(=O)CCC1=O (configuration not stated)
inactive: HOP-92 > 100 µM | MDA-MB-231 > 100 µM | MOLT-4 > 100 µM | EKVX > 100 µM | SK-MEL-28 > 100 µM | MDA-N > 100 µM | PC-3 > 100 µM | K562 > 100 µM | NCI-H226 > 100 µM | Malme-3M > 100 µM | BT-549 > 100 µM | 786-0 > 100 µM | A549 > 100 µM | U-251 > 100 µM

Fc1cccc(F)c1C1SCc2nc3cc(Cl)c(Cl)cc3n21 (configuration not stated)
inactive: HOP-92 42.4 µM | MDA-MB-231 > 100 µM | CAKI-1 > 100 µM | MOLT-4 > 100 µM | EKVX > 100 µM | OVCAR-3 > 100 µM | SK-MEL-28 > 100 µM | MDA-MB-435 > 100 µM | MDA-N > 100 µM | PC-3 > 100 µM | K562 > 100 µM | NCI-H522 > 100 µM | SF-539 > 100 µM | Malme-3M > 100 µM | BT-549 > 100 µM | 786-0 > 73.5 µM | A549 > 100 µM | U-251 > 100 µM

CNC(=O)Oc1ccc(C(=S)Nc2ccc(Br)cc2)cc1
inactive: A498 18.4 µM | CAKI-1 17.8 µM | MOLT-4 5.42 µM | EKVX 8.05 µM | OVCAR-3 19.7 µM | SK-MEL-28 22 µM | MDA-MB-435 21.8 µM | MDA-N 22.2 µM | PC-3 23.8 µM | K562 14.1 µM | NCI-H522 11.4 µM | SF-539 18.4 µM | Malme-3M 31.3 µM | BT-549 17.1 µM | 786-0 21.8 µM | A549 21.9 µM | U-251 23.2 µM

O=C(/C=C1/Nc2ccc([N+](=O)[O-])cc2N/C1=C/C(=O)c1ccc(Cl)cc1)c1ccc(Cl)cc1
inactive: MDA-MB-231 > 100 µM | A498 10.1 µM | CAKI-1 > 100 µM | MOLT-4 > 100 µM | EKVX > 100 µM | OVCAR-3 80.2 µM | MDA-MB-435 > 100 µM | MDA-N > 100 µM | PC-3 41.4 µM | K562 31.9 µM | NCI-H226 > 100 µM | NCI-H522 4.41 µM | SF-539 > 100 µM | Malme-3M > 100 µM | BT-549 > 100 µM | 786-0 > 100 µM | A549 > 100 µM | U-251 > 100 µM

CCN(CC)C(=O)Cn1c(C)cc2ccccc21
inactive: HOP-92 > 100 µM | MDA-MB-231 > 100 µM | CAKI-1 > 100 µM | MOLT-4 > 100 µM | EKVX > 100 µM | OVCAR-3 > 100 µM | SK-MEL-28 > 100 µM | MDA-MB-435 > 100 µM | MDA-N > 100 µM | PC-3 > 100 µM | K562 > 100 µM | NCI-H226 > 100 µM | NCI-H522 > 100 µM | SF-539 > 100 µM | Malme-3M > 100 µM | BT-549 > 100 µM | 786-0 > 100 µM | A549 > 100 µM | U-251 > 100 µM

O=C1c2ccccc2C(=O)N1n1c(Cc2ccc(Cl)cc2)n[nH]c1=O
inactive: HOP-92 > 100 µM | MDA-MB-231 > 100 µM | A498 > 100 µM | CAKI-1 > 100 µM | MOLT-4 > 100 µM | EKVX > 100 µM | OVCAR-3 > 100 µM | SK-MEL-28 > 100 µM | MDA-MB-435 > 100 µM | MDA-N > 100 µM | PC-3 > 100 µM | K562 > 100 µM | NCI-H226 > 100 µM | SF-539 > 100 µM | Malme-3M > 100 µM | BT-549 > 100 µM | 786-0 > 100 µM | A549 > 100 µM | U-251 > 100 µM
